Source: patent publication US20080188654A1, “Compounds for treatment of inflammation, diabetes and related disorders” (Theracos, Inc., priority 2001, published 2008)

How the values were obtained:
TNF-alpha [1] = test: Inhibition of LPS-induced TNF-alpha production in mice; format: in vivo, mouse; details: for Percent TNF Production (Mean ± SEM): plasma 1 h after LPS, vehicle = 100%, p < 0.05; for inhibition of LPS-induced TNF-alpha production in mice: 50 or 100 mg/kg oral
TNF-alpha [2] = test: Inhibition of LPS-induced TNF-alpha release by human monocytes; format: cell-based; details: Monocyte, read-out: Percent Inhibition of TNF-alpha Release
DBA/1J mice = test: Collagen-induced arthritis in mice; format: in vivo, mouse
[3] = high dose, 100 mg/kg oral twice daily 14 days

Row | SMILES | inhibition at 3 µM (TNF-alpha [2]) [%] | inhibition at 10 µM (TNF-alpha [2]) [%] | inhibition at 30 µM (TNF-alpha [2]) [%] | inhibition at 0.3 µM (TNF-alpha [2]) [%] | further results
1 | CN(C)C(=O)/C(=C/c1cccnc1)c1ccc(Oc2ccc(CCC(N)=O)cc2)cc1 [Compound 77, 2-{4-[4-(2-carbamoyl-ethyl)-phenoxy]-phenyl}-N,N-dimethyl-3-pyridin-3-yl-acrylamide] | – | – | – | – | Percent TNF Production (Mean ± SEM) (TNF-alpha [1]; 50 mg/kg oral): 54 ± 10%; Percent TNF Production (Mean ± SEM) (TNF-alpha [1]; 100 mg/kg oral): 67 ± 20%; inhibition of LPS-induced TNF-alpha production in mice (TNF-alpha [1]): significantly inhibited
2 | CCOC(=O)CCc1ccc(Oc2ccc(/C(=C\c3cc(OC)cc(OC)c3)C(=O)N(C)C)cc2)cc1 [Compound 37, 3-(4-{4-[2-(3,5-dimethoxyphenyl)-1-dimethylcarbamoylvinyl]-phenoxy}-phenyl)-propionic acid ethyl ester] | 38 | 65 | 78 | – | inhibition at 1 µM (TNF-alpha [2]): 17%
3 | COc1cc(/C=C(/C(=O)N(C)C)c2ccc(O)cc2)cc(OC)c1 [Compound 49, 3-(3,5-dimethoxyphenyl)-2-(4-hydroxyphenyl)-N,N-dimethylacrylamide] | 14 | 47 | 54 | – | –
4 | CN(C)C(=O)/C(=C/c1cccnc1)c1ccc(Oc2ccc(CCC(=O)NC(N)=O)cc2)cc1 [Compound 73, N,N-dimethyl-2-{4-[4-(3-oxo-3-ureidopropyl)-phenoxy]-phenyl}-3-pyridin-3-yl-acrylamide] | 62 | – | 81 | 30 | –
5 | COc1cc(/C=C(/C(=O)N(C)C)c2ccc(Oc3ccc(CC(C(N)=O)C(N)=O)cc3)cc2)cc(OC)c1 [Compound 59, 2-(4-{4-[2-(3,5-dimethoxyphenyl)-1-dimethylcarbamoylvinyl]-phenoxy}-benzyl)-malonamide] | 69 | – | 80 | 27 | –
6 | COc1cc(/C=C(/C(=O)N(C)C)c2ccc(Oc3ccc(CCC(N)=O)cc3)cc2)cc(OC)c1 [Compound 31, 2-{4-[4-(2-carbamoylethyl)-phenoxy]-phenyl}-3-(3,5-dimethoxyphenyl)-N,N-dimethylacrylamide] | 73 | 83 | 86 | – | inhibition at 1 µM (TNF-alpha [2]): 51%; Percent TNF Production (Mean ± SEM) (TNF-alpha [1]; 50 mg/kg oral): 68 ± 11%; Percent TNF Production (Mean ± SEM) (TNF-alpha [1]; 100 mg/kg oral): 53 ± 20%; inhibition of LPS-induced TNF-alpha production in mice (TNF-alpha [1]): significantly inhibited; arthritis clinical score (severity) (DBA/1J mice; [3]): prevented the increase in severity; histology of hind limbs (DBA/1J mice; [3]): reduction in incidence and severity of pannus formation, inflammation cell infiltration and bone/cartilage damage; histology of hind limbs (DBA/1J mice; low dose, 40 mg/kg oral twice daily 14 days): marked chronic inflammation of synovium with pannus formation and destruction of bone and cartilage; arthritis clinical score (severity) (DBA/1J mice; low dose, 40 mg/kg oral twice daily 14 days, compared with vehicle): no apparent effect
7 | CCOC(=O)CCc1ccc(Oc2ccc(C(=Cc3ccc4c(c3)OCO4)C(=O)N(C)C)cc2)cc1 [Compound 69, 3-{4-[4-(2-benzo[1,3]dioxol-5-yl-1-dimethylcarbamoylvinyl)-phenoxy]-phenyl}-propionic acid ethyl ester] | 22 | – | 50 | 1 | –
8 | COc1cc(/C=C(/C(=O)N(C)C)c2ccc(Oc3ccccn3)cc2)cc(OC)c1 [Compound 66, 3-(3,5-dimethoxyphenyl)-N,N-dimethyl-2-[4-(pyridin-2-yloxy)-phenyl]-acrylamide] | 53 | – | 84 | 27 | –
